From patent US9186337B2, “Lysine demethylase inhibitors for diseases and disorders associated with Hepadnaviridae” (Oryzon Genomics S.A., priority 2010, dated 2015)
pEC50, pIC50: −log10 of the molar value.

Experiments:
[1] = tested on: hepatitis B virus (HBV) ayw strain; assay: Anti-HBV assay with HepG2-2.2.15 cells (HBV DNA replication); format: cell-based; conditions: for Selectivity Index SI50: HepG2-2.2.15 cells; for pEC50: Hepatitis B virus, HepG2 2.2.15, read-out: Antiviral Activity EC50
Description: (§1) Anti-HBV assays were conducted at Southern Research Organization using an HBV DNA replicon with a luciferase reporter.
(§2) Southern Research reports HepG2-2.2.15 is a stable cell line containing the hepatitis B virus (HBV) ayw strain genome. Antiviral compounds blocking any late step of viral replication such as transcription, translation, pregenome encapsidation, reverse transcription, particle assembly and release can be identified and characterized using this cell line. Initially we test whether a compound will reduce the production of secreted HBV from cells utilizing our real time quantitative PCR (TaqMan) HBV DNA assay.

[2] = Cytotoxicity in anti-HBV assay; format: cell-based; conditions: human; HepG2-2.2.15 cells
Description: as §1, §2

[3] = Maximum tolerated dose study in mice; format: in vivo; conditions: IP, 20, 40 and 60 mg/kg daily for 10 days
Description: (§3) Maximum tolerated dose studies and pharmacokinetics for several LSD1 inhibitors were assessed to determine if the compound can be administered to mammals safely at does that are expected to achieve therapeutic effects. In particular, compound X was given to mice IP at 20 mg/kg 40 mg/kg and 60 mg/kg daily for 10 days in a MTD study conducted at Leitat.

[4] = Pharmacokinetics (PK studies); format: in vivo, mice; conditions: at the MTD study doses, in words
Description: as §3

SMILES: Nc1ccn([C@@H]2CS[C@H](CO)O2)c(=O)n1 (relative stereo) [Compound 3TC, (2R, cis)-4-amino-1-(2-hydroxymethyl-1,3-oxathiolan-5-yl)-(1H)-pyrimidin-2-one, reference compound]
- Selectivity Index SI50 [1]: >100
- pEC50 [1]: 8.00
- pIC50 [2]: 4.22

SMILES: NC1CC1c1ccc(-c2cccc(O)c2)cc1 (stereo not drawn) [Compound X]
- Selectivity Index SI50 [1]: 26.8
- pEC50 [1]: 5.65
- activity in an HBV DNA replication assay ([1]; in words): low micromolar range
- tolerability in MTD study [3]: tolerated with acceptable toxicity
- Cmax [4]: expected to result in therapeutic levels
- pIC50 [2]: 4.26
